Source: PubChem BioAssay AID1963981 (Molecular Pharmacology Branch, DTP, NCI, 2024)

System: 354836-022-R-J1-PDC multicell spheroid viability
Assay: Anticancer human tumor 354836-022-R-J1-PDC patient-derived head and neck squamous cell carcinoma cell line growth inhibition [PI3K]
Conditions: for IC50: curve of first compound; for viability, T/C: stronger effect = lower value; active = viability on the fitted dose curve at most 10% of control; inactive = the rest
Text: Combinatorial screen of targeted agents with the PI3K inhibitors inavolisib, alpelisib, duvelisib, and copanlisib in multi-cell type tumor spheroids
A high-throughput screen of multi-cell type tumor spheroids was designed to identify active combinations of targeted small molecules and PI3K pathway inhibitors. Complex spheroids include a stromal component modeled by human endothelial cells (HUVEC) and fibroblasts modeled by human mesenchymal stem cells (MSCs). The concentration ranges selected for each drug and investigational agent were based upon clinically achievable concentrations if the clinical Cmax of the agent was known.
Compounds. The drugs and investigational agents: inavolisib (NSC800729), alpelisib (NSC765974), duvelisib (NSC772469), copanlisib (NSC816437), ipatasertib (NSC767898), afuresertib (NSC778305), talazoparib (NSC767125), sapanisertib (NSC764658), selumetinib (NSC741078), tovorafenib (DAY101, NSC766906), vemurafenib (NSC761431), ravoxertinib (NSC781343), sotorasib (NSC818433), MRTX1133 (NSC 836407), abemaciclib (NSC 768073), palbociclib (NSC758247), venetoclax (NSC 766270), SY5609 (NSC837396), enzalutamide (NSC755605), and darolutamide (NSC825331), were obtained from the National Cancer Institute (NCI) Developmental Therapeutics Program Chemical Repository. The FDA-approved anticancer drug set is available from the NCI Developmental Therapeutics Program. […] The stock solutions were prepared in dimethyl sulfoxide (DMSO, Sigma-Aldrich, St. Louis, MO, cat. D2650) at 800-fold the tested concentration and stored at -70 degrees C prior to their use. All drugs and investigational agents were tested over a range starting from a high concentration at or near the clinical Cmax and decreasing in half-log increments. If the clinical Cmax for an agent had not been determined, the highest concentration tested was 10 microM.
Cell Culture. All cells were maintained in an incubator at 37 degrees C and 5% CO2 with 95% humidity. The PDC lines were cultured according to standard operating procedures established by the NCI PDMR (https://pdmr.cancer.gov/sops/default.htm). All PDCs were thawed and cultured in Matrigel-coated flasks prepared with a working solution of 1X Ham's F-12 nutrient mix, without supplementation (Invitrogen, Waltham, MA, cat. 11765054), 100 U/mL penicillin-streptomycin (Invitrogen, cat. 15140122), and 2.5% Matrigel (Corning Inc., Corning, NY, cat. 354248) for the first three passages. The 354836-022-R-J1-PDC, 475296-252-R-J1-PDC, and 997726-040-R-J2-PDC lines were cultured in 6A media, which includes advanced DMEM/F-12 (Thermo Fisher Scientific, cat. 12634028), 10 mM HEPES (Thermo Fisher Scientific, cat. 15630080), 1X GlutaMAX supplement (Thermo Fisher Scientific, cat. 35050061), 0.1 mg/mL primocin (InvivoGen, San Diego, CA, cat. ant-pm-2), 10% defined fetal bovine serum, heat inactivated (HyClone Laboratories Inc., Logan, UT, cat. SH30070.03HI), 50% L-WRN conditioned media (ATCC, cat. CRL-3276), 1.25 mM N-Acetyl-L-cysteine (Sigma-Aldrich, cat. A9165), 10 mM nicotinamide (Sigma-Aldrich, cat. N0636), 1X B-27 supplement (Thermo Fisher Scientific, cat. 17504044), 1X N-2 supplement (Thermo Fisher Scientific, cat. 17502048), and 10 microM Y-27632 dihydrochloride (Tocris Bioscience, Bristol, United Kingdom, cat. 1254). The 624824-186-R-J2-PDC line was cultured in 6C/Colon 1B media, which includes all 6A media components plus 50 ng/mL human EGF recombinant protein (Thermo Fisher Scientific, cat. PHG0311). […]
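Also: spheroids exposed to agents for seven days before the viability read.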

CC1(C)CCC(CN2CCN(c3ccc(C(=O)NS(=O)(=O)c4ccc(NCC5CCOCC5)c([N+](=O)[O-])c4)c(Oc4cnc5[nH]ccc5c4)c3)CC2)=C(c2ccc(Cl)cc2)C1 + CC(Nc1ncnc2nc[nH]c12)c1cc2cccc(Cl)c2c(=O)n1-c1ccccc1
inactive: viability, T/C (second compound 0.0316 µM, first compound 0.0316 µM) 92.4% | viability, T/C (second compound 0.0316 µM, first compound 0.1 µM) 78% | viability, T/C (second compound 0.0316 µM, first compound 0.316 µM) 85.5% | viability, T/C (second compound 0.0316 µM, first compound 1 µM) 91.7% | viability, T/C (second compound 0.0316 µM, first compound 3.16 µM) 71.3% | viability, T/C (second compound 0.0316 µM, first compound 10 µM) 110% | viability, T/C (second compound 0.1 µM, first compound 0.0316 µM) 81.3% | viability, T/C (second compound 0.1 µM, first compound 0.1 µM) 89.1% | viability, T/C (second compound 0.1 µM, first compound 0.316 µM) 97.8% | viability, T/C (second compound 0.1 µM, first compound 1 µM) 99.5% | viability, T/C (second compound 0.1 µM, first compound 3.16 µM) 67.2% | viability, T/C (second compound 0.1 µM, first compound 10 µM) 93% | viability, T/C (second compound 0.316 µM, first compound 0.0316 µM) 86.3% | viability, T/C (second compound 0.316 µM, first compound 0.1 µM) 105% | viability, T/C (second compound 0.316 µM, first compound 0.316 µM) 103% | viability, T/C (second compound 0.316 µM, first compound 1 µM) 97.7% | viability, T/C (second compound 0.316 µM, first compound 3.16 µM) 64.1% | viability, T/C (second compound 0.316 µM, first compound 10 µM) 93% | viability, T/C (second compound 1 µM, first compound 0.0316 µM) 106% | viability, T/C (second compound 1 µM, first compound 0.1 µM) 92.8% | viability, T/C (second compound 1 µM, first compound 0.316 µM) 93.4% | viability, T/C (second compound 1 µM, first compound 1 µM) 80.9% | viability, T/C (second compound 1 µM, first compound 3.16 µM) 66.4% | viability, T/C (second compound 1 µM, first compound 10 µM) 87.2% | viability, T/C (second compound 3.16 µM, first compound 0.0316 µM) 89.1% | viability, T/C (second compound 3.16 µM, first compound 0.1 µM) 106% | viability, T/C (second compound 3.16 µM, first compound 0.316 µM) 95.2% | viability, T/C (second compound 3.16 µM, first compound 1 µM) 85.6% | viability, T/C (second compound 3.16 µM, first compound 3.16 µM) 60.8% | viability, T/C (second compound 3.16 µM, first compound 10 µM) 93.5% | viability, T/C (second compound 10 µM, first compound 0.0316 µM) 90.9% | viability, T/C (second compound 10 µM, first compound 0.1 µM) 87% | viability, T/C (second compound 10 µM, first compound 0.316 µM) 90.2% | viability, T/C (second compound 10 µM, first compound 1 µM) 82.2% | viability, T/C (second compound 10 µM, first compound 3.16 µM) 53% | viability, T/C (second compound 10 µM, first compound 10 µM) 76.2%
> 10 µM: IC50 (second compound 0.0316 µM) | IC50 (second compound 0.1 µM) | IC50 (second compound 0.316 µM) | IC50 (second compound 1 µM) | IC50 (second compound 3.16 µM) | IC50 (second compound 10 µM)
